According to US9492424B2, “Muscle atrophy inhibitor” (MORINAGA MILK INDUSTRY CO., LTD., priority 2011, dated 2016):

Columns and labels:
atrogin-1 gene = assay: expression amount of atrogin-1 gene in tibialis anterior muscle by real time PCR; type: in vivo, rat; details: Example 3
Source text: (§1) The tibialis anterior muscles collected in Example 1 mentioned above were used to evaluate expression amounts of genes that participate in muscle atrophy.
(§2) The tibialis anterior muscle was frozen in liquid nitrogen immediately after the collection, and homogenized in Trizol Reagent (Invitrogen), and the total RNA was extracted by using RNeasy Mini Kit (QIAGEN). cDNA was obtained by the total RNA by using High Capacity cDNA Reverse Kit (ABI). The cDNA, primers for amplifying each of the atrogin-1, MuRF1, and myostatin genes (ABI), and Taqman Fast Universal PCR Master Mix (ABI) were mixed, and expression amount of each gene in the test sample was relatively quantified by the real time PCR method, with taking the gene expression amount in the DEX group as 1. In statistical analysis, it was determined whether there were statistically significant differences between the values obtained for the DEX group and the values obtained for the other groups according to the Dunnett test.
(§3) In Examples 1 and 2, 1 mass % of the extract of Citrus depressa was added to the feed, and fed. […]

MuRF1 gene = assay: expression amount of MuRF1 gene in tibialis anterior muscle by real time PCR; type: in vivo, rat; details: Example 3
Source text: as §1, §2, §3

## COc1ccc(-c2cc(=O)c3c(OC)c(OC)c(OC)c(OC)c3o2)cc1OC [NOB, nobiletin]
atrogin-1 gene; eight-month old SD rats, 0.0007 mass % in feed for two weeks, dexamethasone
  expression amount of the atrogin-1 gene relative to DEX group taken as 1.0: 0.85±0.29
atrogin-1 gene; from feed intake and body weight of the NOB group, 19 days ingestion
  ingestion amount with which the effect can be expected: about 0.2 mg/kg/day

## COc1ccc(-c2cc(=O)c3c(OC)c(OC)c(OC)c(OC)c3o2)cc1 [TAN, tangeretin]
MuRF1 gene; eight-month old SD rats, 0.0004 mass % in feed for two weeks, dexamethasone
  expression amount of the MuRF1 gene relative to DEX group taken as 1.0: 0.77±0.35
MuRF1 gene; from feed intake and body weight of the TAN group, 19 days ingestion
  ingestion amount with which the effect can be expected: about 0.1 mg/kg/day
